The series relates to F1G cells.

With `Cc1cccc2nc(CSC(=S)NCc3cccnc3)cn12` [Compound 1, (5-methylimidazo[1,2-a]pyridin-2-yl)methyl (pyridin-3-ylmethyl)carbamodithioate], the “cytotoxicity” value is “without cytoxicity at the active doses”.

Values taken from PMC9901219 (European Journal of Medicinal Chemistry, 2023).
